# Where two headings read alike, the source gives them in different places.
# Assays:
# CD-1 mouse lungs = assay: In vivo transfection of CD-1 mice with i.v. lipoplex (pCMV-Luc), luciferase activity assay in organs; settings: for Relative Activity of MMET Analogues-Cholesterol Liposomes: cationic lipid:cholesterol 1:1 mol/mol, in vivo transfection to the lungs, MMET = 100; for rank order of transfection activity in lungs: liposomes of pure cationic lipid, charge ratio 8:1 to 16:1, 12 hours after i.v.; for transfection level versus trimethylammonium counterparts (DOTMA, DOTAP): 4:1 +/− charge ratio, pure cationic lipid liposomes
# Method: Cationic liposomes of formulas (I-VI) were prepared from pure cationic lipids or as equimolar mixtures of a cationic lipid and neutral lipids, such as DOPE, or cholesterol, using extrusion or sonication methods. One hundred μmoles of a cationic lipid or one hundred μmoles each of a cationic lipid and a selected neutral lipid were dissolved in a round bottom flask. The organic solvent was then evaporated under vacuum at 45° C. to form a thin lipid film. The residual solvent was further removed under high vacuum for one hour. The lipid film was then suspended with 10 ml of endotoxin-free distilled water (Gibco, BRL, MD) at room temperature for one hour, and subsequently extruded using 0.8 μm, 0.4 μm and 0.2 μm pore size filters. The extruded multilammelar liposomes have sizes of 850 nm, 350 nm and 280 nm in diameter, respectively. Some of the extruded liposomes were further sonicated in a bath sonicator for 2-5 minutes to form unilamellar liposomes with a size of about 100 nm in diameter. The size of the liposomes were measured by 90° laser dynamic light scattering using a Zetamaster submicron particle analyzer.
# (§1) For transfection in vivo, normal CD-1 mouse was used as a model. The charge ration of lipid to DNA (±) was used throughout the study, assuming that 25 μg of DNA contains about 75 nmoles of negative charges, and one nmole of quaternary ammonium cationic lipid contains one nmole of positive charges. To prepare lipoplex for transfection, 25 μg or an indicated amounts of pCMV DNA was diluted in 100 μl of distilled water (endotoxin screened, Gibco). The diluted DNA solution was added to a polystyrene tube containing an indicated amount of cationic liposomes in 100 μl and was mixed immediately. The complexes were kept at + room temperature for 30 minutes before being administered to the animals via tail vein.
# Luciferase activity was measured in various organs, including lung, liver spleen, and heart from transfected animals, using a luciferase activity assay kit (Promega, Madison, Wis.) and a luminometer (Moonlight 3010). Organs were collected from the animals at 12 hours post transfection or at an indicated time after injection of lipoplex. About 0.2 g of liver were removed from the animal. One ml of 1× lysis buffer (Promega, Madison, Wis.), supplemented with 0.1% Triton-X100 was added to collected organs. Each organ was homogenized for 10-20 seconds using a handheld homogenizer (Dremel, Racine, Wis.) as it top speed (about 30,000 rpm). The samples were centrifuged in a microcentrifuge for three minutes. A 10 μL of the cleared supernatant, containing approximately 100-200 μg proteins, was measured for luciferase activity. Protein content in the supernatants was determined with BioRad dye reagent method, using albumin as a standard. The luciferase activities were normalized to the relative light unit per milligram of extracted protein.
# CD-1 mice [1] = settings: mouse, in vivo
# CD-1 mice [2] = type: in vivo; settings: for safety of lipoplex for CD-1 mice: 25 μg of DNA, pure cationic lipid liposomes, 1:16 charge ratio; for Number of animals died per group (n = 3): CD-1 mice (20 g), charge ratio 16:1+/−, counted after 48 h; for relative toxicity of liposome compositions: escalating doses of lipoplexes, groups of three animals, first 48 hours
# Method: as §1
# Table 2 below lists the number of animals that expired during the first 48 hours of the experiment period, when escalating doses of the lipoplexes were given to a group of three animals. Lipoplex containing 25 μg of DNA and DOTMA or MMET liposomes at 1:16 charge ratio or with a mixture of cholesterol-DOTMA, or cholesterol-MMET at 1:4 charge ratios appear to be quite safe for CD-1 mice. Higher charge ratios of lipid to DNA and high doses of lipoplex were required to reach a lethal dose. […] In general, MMET containing liposomes were less toxic than the ones containing DOTMA.
molecule,measurement,setting,value
"CCCCCCCC/C=C\CCCCCCCC[N+]1(CCCCCCCC/C=C\CCCCCCCC)CCOCC1.[Cl-] [DOMor, N,N-dioleylmorpholinium chloride]",Relative Activity of MMET Analogues-Cholesterol Liposomes,CD-1 mouse lungs,76.09
"CCCCCCCC/C=C\CCCCCCCC(=O)OCC(C[N+]1(C)CCCC1)OC(=O)CCCCCCC/C=C\CCCCCCCC (centres unmarked) [MPES, N-3-methyl-1,2-dioleoul-3-pyrrolinum propane]",Relative Activity of MMET Analogues-Cholesterol Liposomes,CD-1 mouse lungs,1.87
"CCCCCCCC/C=C\CCCCCCCCOCC[N+]1(CCOCCCCCCCC/C=C\CCCCCCCC)CCOCC1.[Cl-] [DODHEM, N,N-di-(2-oleyloxyethyl)-mopholinium chloride]",Relative Activity of MMET Analogues-Cholesterol Liposomes,CD-1 mouse lungs,74.54
"CCCCCCCC/C=C\CCCCCCCCOCC(C[N+]1(C)CCCC1)OCCCCCCCC/C=C\CCCCCCCC (centres unmarked) [MPET, -3-methyl-1,2-dioleyl-3-pyrrolinium propane]",Relative Activity of MMET Analogues-Cholesterol Liposomes,CD-1 mouse lungs,55.49
"CCCCCCCC/C=C\CCCCCCCC(=O)OCC(CNC(=O)[C@@H](N)CCCCN)OC(=O)CCCCCCC/C=C\CCCCCCCC (stereo partly drawn) [LADOP, N-[(2,3-dioleoyloxy)propyl]-L-lysinamide]",duration of transgene expression in lungs (disappearing by),"CD-1 mouse lungs; liposome/DNA complex delivered intravenously, after transfection",≤ 48 h
same,rank order of transfection activity in lungs,CD-1 mouse lungs,MMET≧DOTMA>MMES>DOTAP>LADOP
same,gene expression after second intravenous transfection,CD-1 mouse lungs; second injection at 48 hours after the first injection,almost identical gene expression and duration
same,tolerance of repeated intravenous doses,CD-1 mice [1],tolerated repeated intravenous doses of DNA/LADOP complex well
"N-3-methyl-1,2-dioleyl-3-morpholinium propane chloride [MMET]","transfection level versus trimethylammonium counterparts (DOTMA, DOTAP)",CD-1 mouse lungs; lungs,higher levels of transfection
same,Relative Activity of MMET Analogues-Cholesterol Liposomes,CD-1 mouse lungs,100
same,transfection activity versus prior art liposomes composed of DOTMA and/or DOTAP or DOTMA-cholesterol,"CD-1 mouse lungs; i.v. to mice, luciferase after 12 hours",much higher
same,rank order of transfection activity in lungs,CD-1 mouse lungs,MMET≧DOTMA>MMES>DOTAP>LADOP
same,safety of lipoplex for CD-1 mice,CD-1 mice [2],quite safe
same,Number of animals died per group (n = 3),CD-1 mice [2]; DNA dosage 25 ug,(0)
same,Number of animals died per group (n = 3),CD-1 mice [2]; DNA dosage 30 ug,(0)
same,Number of animals died per group (n = 3),CD-1 mice [2]; DNA dosage 45 ug,(1)
same,relative toxicity of liposome compositions,CD-1 mice [2],somewhere in between
"CCCCCCCC/C=C\CCCCCCCC(=O)OCC(C[N+](C)(C)C)OC(=O)CCCCCCC/C=C\CCCCCCCC (centres unmarked) [DOTAP, 1,2-dioleoyl-3-trimethylammonium propane, reference compound]",Relative Activity of MMET Analogues-Cholesterol Liposomes,CD-1 mouse lungs,28.14
same,rank order of transfection activity in lungs,CD-1 mouse lungs,MMET≧DOTMA>MMES>DOTAP>LADOP
"CCCCCCCC/C=C\CCCCCCCCOCC(C[N+](C)(C)C)OCCCCCCCC/C=C\CCCCCCCC.[Cl-] (centres unmarked) [DOTMA, 1,2,-dioleyl-3-N,N,N-trimethyl amino propane chloride, reference compound]",rank order of transfection activity in lungs,CD-1 mouse lungs,MMET≧DOTMA>MMES>DOTAP>LADOP
same,safety of lipoplex for CD-1 mice,CD-1 mice [2],quite safe
same,Number of animals died per group (n = 3),CD-1 mice [2]; DNA dosage 25 ug,(0)
same,Number of animals died per group (n = 3),CD-1 mice [2]; DNA dosage 30 ug,(2)
same,Number of animals died per group (n = 3),CD-1 mice [2]; DNA dosage 45 ug,(3)
same,relative toxicity of liposome compositions,CD-1 mice [2],somewhere in between
"CCCCCCCC/C=C\CCCCCCCC(=O)OCC(C[N+]1(C)CCOCC1)OC(=O)CCCCCCC/C=C\CCCCCCCC (centres unmarked) [MMES, N-3-methyl-1,2-dioleoyl-3-morpholinium propane]","transfection level versus trimethylammonium counterparts (DOTMA, DOTAP)",CD-1 mouse lungs; lungs,higher levels of transfection
same,Relative Activity of MMET Analogues-Cholesterol Liposomes,CD-1 mouse lungs,48.72
same,rank order of transfection activity in lungs,CD-1 mouse lungs,MMET≧DOTMA>MMES>DOTAP>LADOP
"CCCCCCCC/C=C\CCCCCCCCOCC(CN1CCOCC1)OCCCCCCCC/C=C\CCCCCCCC (centres unmarked) [dioleyl morpholino propanediol, 1,2-dioleyl-N-3-morpholino propane]",in vivo transfection activity of MMET analogues (in words),"CD-1 mouse lungs; formulated with cholesterol at 1:1 mole ratios, lungs",only weak activity

# Reference: US7067697B2, “Cationic liposomes for gene transfer” (priority 1998, dated 2006)
